Laboratory results reported in PubChem BioAssay AID248 (DTP/NCI, 2004).
“And” between values parts separate entries of the source, which are not always exact repeats. Identical values can stand only once. Inconclusive results and toxic doses are left out. No stated cut-off is given here; in the data, active means T/C of 150% or more; inactive means T/C below 125%.

System: L1210 leukemia ip in BDF1 mice, survival T/C
Experiment: NCI In Vivo Anticancer Drug Screen. Data for tumor model L1210 Leukemia (intraperitoneal) in B6D2F1 (BDF1) mice
Conditions: endpoint: mean survival time, higher = longer survival
In short: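 Each compound was tested against a transplantable tumor grown in mice. The endpoint was survival, with treated animals benchmarked against vehicle controls as a simple ratio.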

[1] = dose: 100.0 mg/kg/injection, schedule: Q04DX002 (ip), vehicle: saline with Tween-80
[2] = dose: 200.0 mg/kg/injection, schedule: Q04DX002 (ip), vehicle: saline with Tween-80
[3] = dose: 100.0 mg/kg/injection, schedule: Q01DX001 (ip), vehicle: carboxymethylcellulose (CMC)
[4] = dose: 200.0 mg/kg/injection, schedule: Q01DX001 (ip), vehicle: carboxymethylcellulose (CMC)
[5] = dose: 400.0 mg/kg/injection, schedule: Q04DX002 (ip), vehicle: saline with Tween-80
[6] = dose: 100.0 mg/kg/injection, schedule: Q01DX009 (ip), vehicle: Klucel (hydroxypropylcellulose) (HPC)
[7] = dose: 200.0 mg/kg/injection, schedule: Q01DX009 (ip), vehicle: Klucel (hydroxypropylcellulose) (HPC)
[8] = dose: 100.0 mg/kg/injection, schedule: Q04DX003 (ip), vehicle: saline with Tween-80
[9] = dose: 200.0 mg/kg/injection, schedule: Q04DX003 (ip), vehicle: saline with Tween-80
[10] = dose: 400.0 mg/kg/injection, schedule: Q04DX003 (ip), vehicle: saline with Tween-80

Measured: T/C

O=C1C2C3C=CC(CC3)C2C(=O)C2C3C=CC(C3)C12 (configuration not stated)
inactive: [1] 101 % of control | [2] 93 % of control

CC(=O)c1c(O)cc(O)cc1-c1cc(=O)c2c(O)ccc(C(C)=O)c2o1
inactive: [3] 103 % of control | [4] 94 % of control

CC(C)(C)CC(C)(C)c1ccc(O)cc1
inactive: dose: 62.5 mg/kg/injection, schedule: Q01DX Z (ip), vehicle: saline 95 % of control | [3] 94 % of control | dose: 125.0 mg/kg/injection, schedule: Q01DX Z (ip), vehicle: saline 101 % of control | [4] 100 % of control | dose: 250.0 mg/kg/injection, schedule: Q01DX Z (ip), vehicle: saline 90 % of control | dose: 400.0 mg/kg/injection, schedule: Q01DX001 (ip), vehicle: carboxymethylcellulose (CMC) 100 % of control | dose: 500.0 mg/kg/injection, schedule: Q01DX Z (ip), vehicle: saline 100 % of control

Cc1ccc(Cl)cc1NC(=O)Nc1cc(C(C)C)ccc1C
inactive: dose: 100.0 mg/kg/injection, schedule: Q01DX009 (ip), vehicle: saline with Tween-80 93 % of control and 100 % of control | [1] 100 % of control and 90 % of control | dose: 200.0 mg/kg/injection, schedule: Q01DX009 (ip), vehicle: saline with Tween-80 93 % of control and 91 % of control | [2] 93 % of control and 94 % of control | dose: 400.0 mg/kg/injection, schedule: Q01DX009 (ip), vehicle: saline with Tween-80 86 % of control | [5] 96 % of control and 101 % of control

COc1ccc(OC)c(NC(=O)Nc2cc([N+](=O)[O-])ccc2OC)c1
inactive: dose: 50.0 mg/kg/injection, schedule: Q01DX009 (ip), vehicle: Klucel (hydroxypropylcellulose) (HPC) 101 % of control | [6] 97 % of control | [7] 111 % of control

CCOC(=O)c1ccc(OC2CCCCO2)c(OC2CCCCO2)c1 (configuration not stated)
inactive: [8] 98 % of control | [9] 98 % of control | [10] 98 % of control

Cc1cccc2cc3cccc(C)[n+]3cc12
inactive: dose: 5.0 mg/kg/injection, schedule: Q01DX001 (ip), vehicle: other 100 % of control | dose: 10.0 mg/kg/injection, schedule: Q01DX001 (ip), vehicle: other 97 % of control | dose: 20.0 mg/kg/injection, schedule: Q01DX001 (ip), vehicle: other 100 % of control

CCN(CC)c1ccc(N)cc1
inactive: dose: 6.25 mg/kg/injection, schedule: Q01DX009 (ip), vehicle: saline with Tween-80 112 % of control | dose: 12.5 mg/kg/injection, schedule: Q01DX009 (ip), vehicle: saline with Tween-80 102 % of control | dose: 12.5 mg/kg/injection, schedule: Q04DX003 (ip), vehicle: saline with Tween-80 100 % of control | dose: 25.0 mg/kg/injection, schedule: Q01DX009 (ip), vehicle: saline with Tween-80 104 % of control | dose: 25.0 mg/kg/injection, schedule: Q04DX003 (ip), vehicle: saline with Tween-80 94 % of control

Oc1c(CN2CCCC2)cc(Nc2cc(/C=C/c3ccc(Cl)cc3)nc(/C=C\c3ccc(Cl)cc3)n2)cc1CN1CCCC1
inactive: dose: 1.0 mg/kg/injection, schedule: Q01DX009 (ip), vehicle: Klucel (hydroxypropylcellulose) (HPC) 110 % of control | dose: 3.0 mg/kg/injection, schedule: Q01DX009 (ip), vehicle: Klucel (hydroxypropylcellulose) (HPC) 98 % of control | dose: 6.0 mg/kg/injection, schedule: Q01DX009 (ip), vehicle: Klucel (hydroxypropylcellulose) (HPC) 101 % of control | dose: 12.0 mg/kg/injection, schedule: Q01DX009 (ip), vehicle: Klucel (hydroxypropylcellulose) (HPC) 91 % of control | dose: 12.0 mg/kg/injection, schedule: Q04DX003 (ip), vehicle: saline 88 % of control | dose: 50.0 mg/kg/injection, schedule: Q04DX003 (ip), vehicle: saline 88 % of control

CCOC(=O)c1c(C)nc(C)c(C(=O)OCC)c1-c1ccc(N(C)C)cc1
inactive: dose: 25.6 mg/kg/injection, schedule: Q04DX002 (ip), vehicle: saline with Tween-80 101 % of control | dose: 64.0 mg/kg/injection, schedule: Q04DX002 (ip), vehicle: saline with Tween-80 97 % of control

O=C1/C(=C/c2ccccc2)CCC/C1=C\c1ccccc1
inactive: [1] 92 % of control | [2] 92 % of control | [5] 95 % of control

CC(=O)c1ccccc1C(=O)O
inactive: dose: 50.0 mg/kg/injection, schedule: Q04DX003 (ip), vehicle: Klucel (hydroxypropylcellulose) (HPC) 98 % of control | dose: 100.0 mg/kg/injection, schedule: Q04DX003 (ip), vehicle: Klucel (hydroxypropylcellulose) (HPC) 94 % of control | dose: 200.0 mg/kg/injection, schedule: Q04DX003 (ip), vehicle: Klucel (hydroxypropylcellulose) (HPC) 96 % of control

Oc1ccc(-c2cc3c(O)ccc(O)c3[nH]2)cc1
inactive: dose: 50.0 mg/kg/injection, schedule: Q04DX002 (ip), vehicle: Klucel (hydroxypropylcellulose) (HPC) 96 % of control | dose: 100.0 mg/kg/injection, schedule: Q04DX002 (ip), vehicle: Klucel (hydroxypropylcellulose) (HPC) 105 % of control | dose: 200.0 mg/kg/injection, schedule: Q04DX002 (ip), vehicle: Klucel (hydroxypropylcellulose) (HPC) 102 % of control

O=C(O)C(SC(C(=O)O)c1ccccc1)c1ccccc1 (configuration not stated)
inactive: dose: 75.0 mg/kg/injection, schedule: Q04DX003 (ip), vehicle: saline with Tween-80 94 % of control | dose: 100.0 mg/kg/injection, schedule: Q01DX001 (ip), vehicle: saline 93 % of control | dose: 150.0 mg/kg/injection, schedule: Q04DX003 (ip), vehicle: saline with Tween-80 96 % of control | dose: 200.0 mg/kg/injection, schedule: Q01DX001 (ip), vehicle: saline 104 % of control | dose: 300.0 mg/kg/injection, schedule: Q04DX003 (ip), vehicle: saline with Tween-80 104 % of control | dose: 400.0 mg/kg/injection, schedule: Q01DX001 (ip), vehicle: saline 98 % of control

CCOP(=O)(CSCCc1ccccc1)OCC
inactive: dose: 100.0 mg/kg/injection, schedule: Q04DX003 (ip), vehicle: saline 92 % of control | dose: 200.0 mg/kg/injection, schedule: Q04DX003 (ip), vehicle: saline 103 % of control

Cc1cccc(Nc2c3ccccc3nc3ccccc23)c1
inactive: dose: 25.0 mg/kg/injection, schedule: Q01DX001 (ip), vehicle: saline with Tween-80 97 % of control | dose: 50.0 mg/kg/injection, schedule: Q01DX001 (ip), vehicle: saline with Tween-80 100 % of control | dose: 100.0 mg/kg/injection, schedule: Q01DX001 (ip), vehicle: saline with Tween-80 104 % of control

COc1cc(OC)c(NC(=O)c2c(Br)c(Br)c(Br)c(Br)c2C(=O)O)cc1Cl
inactive: [6] 107 % of control | [7] 94 % of control | dose: 400.0 mg/kg/injection, schedule: Q01DX009 (ip), vehicle: Klucel (hydroxypropylcellulose) (HPC) 95 % of control

CSc1nnc(SC)s1
inactive: [8] 104 % of control | [9] 93 % of control | [10] 93 % of control

COc1ccc(Nc2cc(=S)nc(N)[nH]2)cc1
inactive: dose: 100.0 mg/kg/injection, schedule: Q01DX Z (ip), vehicle: methylcellulose (MC) 100 % of control | dose: 200.0 mg/kg/injection, schedule: Q01DX Z (ip), vehicle: methylcellulose (MC) 115 % of control

c1ccc(-c2c(-c3ccccc3)c(-c3ccccc3)c(-c3ccccc3)c(-c3ccccc3)c2-c2ccccc2)cc1
inactive: dose: 25.0 mg/kg/injection, schedule: Q01DX009 (ip), vehicle: water 104 % of control | dose: 50.0 mg/kg/injection, schedule: Q01DX009 (ip), vehicle: water 102 % of control | dose: 100.0 mg/kg/injection, schedule: Q01DX009 (ip), vehicle: water 96 % of control | dose: 200.0 mg/kg/injection, schedule: Q01DX009 (ip), vehicle: water 100 % of control | dose: 400.0 mg/kg/injection, schedule: Q01DX009 (ip), vehicle: water 97 % of control
